| melting point | Compound |
| --- | --- |
| 193 °C | Cc1cc(-c2cc(C(F)(F)F)n3ncc(-c4cccnc4)c3n2)ccc1Cl |
| 130 to 131 °C | COC(=O)C1=C(C(OC)OC)NC(C)=C(C(=O)OCC(C)(C)C)C1c1ccccc1C#N (stereo unspecified) |
| 181 to 182 °C | CC(C)c1nccc2c(CC(=O)O)cccc12 |
| 127 °C | O=C(N[C@H]1CCN(Cc2ccccc2)C[C@H]1O)c1ccccc1O (relative stereo) |
| 97 to 100 °C | O=Cc1ccc(Br)cc1C=O |
| 194 to 196 °C | CC(CC(=O)Nc1c(Cl)ccc2nc(N3CCNCC3)ccc12)c1ccccc1 (stereo unspecified) |
| 155 to 157 °C | CCOC(=O)C1=C(CSC(C)=O)NC=C(C(=O)OC)C1c1cccc(Cl)c1Cl (single isomer, unassigned; (-)) |
| 185 to 186 °C | NC(=O)Cc1cc(=O)oc2cc(OCc3cccc(Cl)c3)ccc12 |
| 209 to 211 °C | CCOc1nc2nc(SC)nn2c2c1cnc1c2cnn1CC |
| 146 to 150 °C | Cn1ncc2c1-c1cc(Cl)ccc1N(C(=O)C1CC1)C2 |
| 163 to 166 °C | NNc1nncc(-c2cccc(Cl)c2)n1 |
| 93 to 115 °C | CC(C)(CC(C)(Sc1cc(C(C)(C)C)c(O)c(C(C)(C)C)c1)Sc1cc(C(C)(C)C)c(O)c(C(C)(C)C)c1)Sc1cc(C(C)(C)C)c(O)c(C(C)(C)C)c1 |
| 253 to 254 °C | CCN(CC)C(=O)c1cc(-n2c(=O)cc(C(F)(F)F)[nH]c2=O)c(F)cc1Cl |
| 78 to 80 °C | O=C(c1ccc2c(c1)OCCOCCOCCOCCOCCO2)c1ccccn1 |
| 87 to 103 °C | CCN1CCc2ccc(OC)c(Nc3ncc(Cl)c(Nc4ccc(N5CCOCC5)cc4OC)n3)c2CC1=O |
| 147 to 148 °C | CCC(=O)Nc1ccc(-n2cc(CCCOc3c(CC(=O)O)cccc3OC)c(C(C)C)n2)nc1 |
| 223 to 224 °C | CC1(C)CSCC(C)(C)c2[nH]c(-c3ccccc3)nc21 |
| 199 to 201 °C | CNc1ccccc1C(=O)Cc1nnn[nH]1 |
| 66 to 67 °C | COc1nn(CC(C)=O)c(=O)s1 |
| 132 to 133 °C | COc1cnc(OC(c2ccccc2)(c2ccccc2)c2ccccc2)cc1OC1CCCC1 |
| 92 °C | C=CCC(CCC=NO)C1=C(O)CC(c2ccc(N)cc2)CC1=O (stereo unspecified) |
| 166 to 168 °C | COc1ccc(C=CC2=NNC(C)Cc3cc4c(cc32)OCO4)cc1OC (stereo unspecified) |
| 211 °C | N#Cc1ccc(C(=Cc2ccc(C#N)cn2)Cn2cncn2)cc1 |

Further lines, the molecule ahead of its results:

| Compound | melting point |
| --- | --- |
| C=C(Cl)COc1cc(C)nc(NCCCCCC)n1 | 36 to 37 °C |
| Cc1cc(C2CCCCC2)ccc1C(=O)O | 129 to 130 °C |
| O=c1c(CCc2nc3ccccc3s2)cc2cccnc2n1-c1cccc([N+](=O)[O-])c1 | 178 to 179 °C |
| Cc1c(C)c2c(c(C3CC(=O)C=C(O)C3)c1C)OCC2 (stereo unspecified) | 264 °C |
| Cc1cc2c3c(c1)C1(CC(=O)NC1=O)C(=O)N3CCC2 (stereo unspecified) | 165 to 167 °C |
| O=C(CC(=O)C1CC1)c1ccncn1 | 81 to 84 °C |
| COc1ccc2sc(C(N)=O)c(SC(C)C)c2c1 | 143 to 144 °C |
| O=C(O)c1cccc(C(=O)NC(Cc2c[nH]c3ccccc23)C(=O)CCc2cc(C(F)(F)F)cc(C(F)(F)F)c2)c1 (stereo unspecified) | 113 to 116 °C |
| Cc1cccc(C(=O)Nc2ccc(N3CCN(Cc4cccc(C#N)c4)CC3)cc2)c1-c1ccc(C(C)C)cc1 | 137 °C |
| COC(=O)c1cc([N+](=O)[O-])c(C(F)(F)F)cc1NC(C)=O | 75 to 80 °C |
| Cc1nc2c(OCc3c(Cl)ccc(S(=O)(=O)N4CCC[C@H]4C(=O)NCCCNC(=O)c4ccc(C(N)=NO)cc4)c3Cl)cccn2c1Cl | 155 °C |
| CCCCN(C)c1c(-c2ccc(OC)cc2)sc2ccccc12 | 61 to 62 °C |
| CCOC=Nc1noc(-c2cc(C(C)(C)C)c(O)c(C(C)(C)C)c2)n1 | 159 to 161 °C |
| CCOc1ccc(N(C)CCCN)cc1 | 97 to 98 °C |
| CC1(C)CC(S(=O)C(F)c2c(F)cccc2F)=NO1 (stereo unspecified) | 87 °C |
| CN(C)Cc1ccc(CSCCNC(=S)NC(=O)c2ccccc2)o1 | 83 to 85 °C |
| CCOC(=O)N1Cc2ccccc2C(Oc2ccc(C(F)(F)F)cc2)C1 (stereo unspecified) | 84 °C |
| COCc1nc2c(N)nc3cc(CCC(N)=O)ccc3c2n1CC(C)(C)O | 228 to 230 °C |
| Clc1ccc2c(CCN3CCN(c4cccc5c4OCCO5)CC3)c[nH]c2c1 | 215 to 216 °C |
| CCOC(=O)c1nc(-c2ccc(F)cc2)c(-c2ccc(=O)n(C(C)C)n2)s1 | 193 to 194 °C |
| CCCc1c(OCCCc2ccc3cc(OC)c(OC)cc3c2)ccc(C(=O)O)c1O | 165 to 168 °C |
| Cc1cc2c(cc1C)C(c1ccccc1)(C(F)(F)F)c1cc(C)c(C)cc1O2 | 214 to 215 °C |
| O=c1[nH]c2cc(Cl)c(Cl)cc2[n+]([O-])c1-c1ccc(O)cc1 | 276 to 278 °C |
| NC(c1ccccc1)c1ccc(OCCCCOc2ccc(C(N)c3ccccc3)cc2)cc1 (stereo unspecified) | 120 to 123 °C |

| Compound | melting point |
| --- | --- |
| COc1cc(O)c(C(=O)C=Cc2cccn2C)c(OC)c1 | 140 °C |
| CNS(=O)(=O)c1cc(C2(O)CCC(=O)N2C)ccc1Cl (stereo unspecified) | 147 to 150 °C |
| CC/C=C\C=C/CCCCCCCCCC=O | 7 to 8 °C |
| Clc1ccc2c(c1)N=C(N1CCN(C3CC3)CC1)c1ccccc1N2 | 196 to 199 °C |
| COc1cc(OC)nc(C(=O)c2nccc(-c3ccccc3)c2C(=O)n2ccnc2)c1 | 126 to 128 °C |
| CNC1CC=C(c2c[nH]c3ccc([N+](=O)[O-])cc23)CC1 (stereo unspecified) | 208 to 210 °C |
| Cc1ccc2nc(NC(=O)c3ccc(C(C)(C)CCC(=O)O)cc3)cn2c1 | 280 to 282 °C |
| O=C(N[C@H]1CC[C@H](CCN2CCN(c3nccc4c3OCC4)CC2)CC1)c1ccc2ncccc2c1 | 212 °C |
| CC(=O)NC(=O)N1CC1C#N (stereo unspecified) | 139 to 142 °C |
| COc1cc2nc(Cl)n3ncnc3c2cc1OC | 258 to 260 °C |
| O=C(c1ccccc1)c1ccc(Oc2ccc(S(=O)(=O)Cc3ccccc3)cn2)cc1 | 146 to 147 °C |
| C=CC(=O)N[C@@H](C=O)[C@@H](O)[C@H](O)[C@H](O)CO | 124 to 125 °C |
| CC(O)c1cc2c(n1C)C(=O)c1cccc(O)c1C2=O (stereo unspecified) | 219 to 220 °C |
| CC1=C(C#N)C(c2ccccc2C(F)(F)F)c2c(ccnc2OC(C)C)N1 (stereo unspecified) | 207 to 209 °C |
| COc1nc(N)nc(OC)n1 | 218 to 221 °C |
| COC(=O)OCCNC(=O)C(F)(F)Cc1c[nH]c([N+](=O)[O-])n1 | 50.5 to 52.5 °C |
| COc1cccc(SC2CC(=O)N2)c1 (stereo unspecified) | 55 to 56 °C |
| Cc1cc(C)cc(Nc2cccc3c2OC(CN)C3)c1 (stereo unspecified) | > 250 °C |
| Cc1cc(-c2nc3cc(-c4ccncc4)cc(N)n3n2)oc1C | 275 to 277 °C |
| CC(C)(C)c1ccc2c(c1)CCC(CN1CCCCC1)C2=O (stereo unspecified) | 47 to 49 °C |
| C[C@H](Cn1ncnn1)n1cnc2cc3c(=O)n([C@H](C)Cn4ncnn4)cnc3cc2c1=O | 255 to 256 °C |
| C=Cc1c(C(C)C)nc(C(C)C)c(CO)c1-c1ccc(F)cc1 | 119 to 120 °C |
| O=C(c1ccc(F)cc1)C1CCN(CCCN2c3cccc4cccc(c34)S2(=O)=O)CC1 | 132 °C |
| COC(=O)CCc1cc(Cl)ccc1C(=O)CCCNC(C)=O | 46 to 48 °C |

Source: a melting point compilation (Tetko et al.; mined from patent text by program, amines drawn as free bases though some values may be those of a salt)
